Here are results for 1 compound from publication PMC11530689, “Anti colorectal cancer activity and in silico studies of novel pyridine nortopsentin analog as cyclin dependent kinase 6 inhibitor” (Scientific Reports, 2024).

In general, IC50 refers to the concentration that inhibits the measured activity by half. High values mean a need for much substance, low ones inhibition by little substance.

For one assay, the target named is CDK4/Cyclin D3 (Homo sapiens, UniProt P11802). In words: Cyclin dependent kinase enzymatic activity assay (ADP-Glo). The assay is classed as biochemical. The method, then: (§1) ADP-Glo™ Kinase Assay kit (Promega, USA) was used for the enzymatic activity analysis according to the manufacturer’s instructions. In brief, to each well we added 1 μl of inhibitor, 2 μl of each cyclin dependent kinase enzymes, and 2 μl of substrate/ATP mix and incubated at room temperature for 60 min. After that 5 μl of ADP‐Glo™ reagent was added and incubated at room temperature for 40 min. 10 μl of kinase detection reagent was added and incubated at room temperature for 30 min, then the luminescence was measured.
A general note: In ADP-Glo the light output rises with the ADP produced.

For the next assay, the target named is CDK2/Cyclin E1 (Homo sapiens, UniProt P24941). The assay is described as above. In kind it is biochemical. The procedure:
as §1

The target in a further assay is CDK6/Cyclin D3 (Homo sapiens, UniProt Q00534). The description is as above. In kind it is biochemical. The procedure: as §1
The next assay concerns CDK6 gene expression. In words: Gene expression by quantitative real-time PCR, CDK6. The assay is classed as cell-based, human. As to conditions: IC50 dose, 48 h, normalized to GAPDH, vs control. The procedure:
(§2) The cells were seeded in a six-well plate at a concentration of 3 × 10^5 cells/well. After a 24 h incubation, the IC50 dose of active compound 4i was applied to each well for 48 h. The cells were collected and centrifuged at 2500 rpm for 15 min at 4 °C. The total RNA isolation kit (RNeasy extraction kit—QIAGEN) was used to isolate RNA according to the manufacturer’s instructions.
(§3) Gene expression analysis by quantitative real-time PCR. The levels of gene expression of CDK2, CDK4 and CDK6 were determined using iScript One-Step RT-PCR kit with SYBR Green (BIORAD) according to the manufacturer protocol. The sequences of the used primers are illustrated in Table 4. The genes expression was normalized to GAPDH as the housekeeping gene. The protocol used for cDNA synthesis was: 10 min at 50 °C, iScript Reverse transcriptase inactivation: 5 min at 95 °C and PCR cycling and detection (30 to 45 cycles): 10 s at 95 °C and 30 s at 55 °C to 60 °C.

The subject of a further assay is HCT-116 cells. Kind of assay: MTT assay, IC50 determination. In kind it is cell-based. The note with it: Homo sapiens, colorectal cancer HCT-116 cells, 48 h. The method, then:
HCT-116 (colon cancer cell line) was obtained from the American Type Culture Collection (ATCC). The cancer cell line was grown in Dulbecco’s Modified Eagle’s Medium (DMEM) supplemented with 10% fetal bovine serum (FBS), penicillin/streptomycin (100 U/mL and 100 μg/mL, respectively) and 2 mM L-glutamine. The cells were maintained at 37 °C in 5% CO2.
The cytotoxic activity of nortopsintin analogs (4a–4j) was determined by the national cancer institute (NCI, Bethesda, Maryland, USA) against 60 different cancer cell lines at a single concentration of (10^−5 M). For the determination of IC50 value, we used MTT assay kit (Sigma) according to the manufacturer’s protocol. HCT-116 cells were seeded into a 96-well plate at a concentration of 20,000 cells/well. After 24 h, the media was aspirated and replaced with serum-free media containing serial dilutions of the 4i compound. The cells were treated for 48 h in triplicates. […] The percentage of cytotoxicity was calculated using the following equation: % Cytotoxicity = [1 − (AVx/AVNC)] × 100.
Where, AVx denotes the average absorbance of the sample and AVNC denotes the average absorbance of the negative control. The absorbance was measured at 570 nm with reference at 690 nm.

The subject of a further assay is CDK2 gene expression. Kind of assay: Gene expression by quantitative real-time PCR, CDK2. In kind it is cell-based, human. As to conditions: IC50 dose, 48 h, normalized to GAPDH, vs control. The procedure:
as §2, §3
Background: Quantitative PCR measures a nucleic acid by following its amplification.

Chain of CDK6/Cyclin D3 (Q00534 whole entry): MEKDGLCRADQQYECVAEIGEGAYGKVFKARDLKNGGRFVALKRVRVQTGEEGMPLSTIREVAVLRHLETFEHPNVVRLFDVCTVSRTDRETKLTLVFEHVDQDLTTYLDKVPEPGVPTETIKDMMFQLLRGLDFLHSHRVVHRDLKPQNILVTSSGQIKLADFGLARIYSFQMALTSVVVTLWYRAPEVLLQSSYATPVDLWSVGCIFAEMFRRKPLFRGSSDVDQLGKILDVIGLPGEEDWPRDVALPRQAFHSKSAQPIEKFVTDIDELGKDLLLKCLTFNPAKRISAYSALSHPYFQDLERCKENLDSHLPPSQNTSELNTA
Chain of CDK6/Cyclin D3 (P30281 whole entry partner): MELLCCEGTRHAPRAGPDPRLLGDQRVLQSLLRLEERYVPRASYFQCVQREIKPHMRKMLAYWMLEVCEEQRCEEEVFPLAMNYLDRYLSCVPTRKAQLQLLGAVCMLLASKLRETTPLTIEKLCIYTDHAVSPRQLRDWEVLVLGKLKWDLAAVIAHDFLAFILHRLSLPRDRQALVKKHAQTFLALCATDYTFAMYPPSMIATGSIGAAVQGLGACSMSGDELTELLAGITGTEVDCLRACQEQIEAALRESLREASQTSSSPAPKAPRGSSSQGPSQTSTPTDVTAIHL
Chain of CDK4/Cyclin D3 (P11802 whole entry): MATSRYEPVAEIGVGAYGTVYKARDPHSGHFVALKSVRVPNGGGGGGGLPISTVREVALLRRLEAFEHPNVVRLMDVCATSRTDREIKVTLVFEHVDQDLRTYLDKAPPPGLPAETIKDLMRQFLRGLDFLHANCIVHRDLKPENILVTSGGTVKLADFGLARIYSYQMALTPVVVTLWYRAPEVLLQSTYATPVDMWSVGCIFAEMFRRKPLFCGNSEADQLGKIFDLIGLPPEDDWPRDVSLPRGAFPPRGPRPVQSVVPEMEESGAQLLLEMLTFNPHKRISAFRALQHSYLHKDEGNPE
Chain of CDK4/Cyclin D3 (P30281 whole entry partner): as the sequence (P30281 whole entry partner) above

Take `CN(C)c1ccc(-c2cc(-c3c[nH]c4ccccc34)nc(-c3c[nH]c4ccccc34)c2C#N)cc1` [4i]: the IC50 at CDK4/Cyclin D3 came to 265 nM; at CDK2/Cyclin E1 it was 658 nM; against CDK6/Cyclin D3, 98 nM; with HCT-116 cells it was 28.8 nM. The “Relative gene expression of CDK6” value in the assay on CDK6 gene expression is recorded as “significantly suppress the expression”. In addition, the “Relative gene expression of CDK2” value with CDK2 gene expression is recorded as “significantly suppress the expression”.
